# Assay results: ChEMBL document CHEMBL4265921, “Novel bisphosphonates with antiresorptive effect in bone mineralization and osteoclastogenesis” (Eur J Med Chem, 2018)
# Calls of active or inactive are those of the source. The rule behind the calls is not given here.
# Assays:
# [1] = system: J774.A1; assay: Antiproliferative activity against mouse J774A.1 cells assessed as reduction in cell viability at 100 uM after 72 hrs by WST8 assay; type: functional, cell-based
# [2] = system: RAW264.7; assay: Antiproliferative activity against mouse RAW264.7 cells assessed as reduction in cell viability at 100 uM after 72 hrs by WST8 assay; type: functional, cell-based
# [3] = system: MG-63; assay: Antiproliferative activity against human MG63 cells assessed as reduction in cell viability at 100 uM after 72 hrs by WST8 assay; type: functional, cell-based
# [4] = system: PC-3; assay: Antiproliferative activity against human PC3 cells assessed as reduction in cell viability at 100 uM after 72 hrs by WST8 assay; type: functional, cell-based
# [5] = system: RAW264.7; assay: Antiproliferative activity against RANKL-differentiated mouse RAW264.7 cells assessed as reduction in cell viability at 100 uM after 72 hrs by CCK8 assay; type: functional, cell-based
# [6] = system: RAW264.7; assay: Inhibition of RANKL-induced osteoclastogenesis in mouse RAW264.7 cells after 72 hrs by TRAP staining based microscopic analysis; type: functional, cell-based
# [7] = system: Bone marrow cell; assay: Induction of mineralization in C57BL mouse bone marrow cells at 50 nM supplemented with fresh medium containing compound every 3 days for 10 to 15 days by alizarin red dye based assay; type: functional
# [8] = system: Bone marrow cell; assay: Induction of mineralization in C57BL mouse bone marrow cells co-cultured with human PC3 cells at 50 to 100 nM supplemented with fresh medium containing compound every 3 days for 10 to 15 days by alizarin red dye based assay; type: functional
# [9] = system: Bone marrow cell; assay: Cytotoxicity against C57BL mouse bone marrow cells assessed as effect on cell proliferation at 0.03 to 500 uM after 72 hrs by crystal violet staining based assay
# [10] = system: MC3T3-E1; assay: Induction of mineralization in mouse MC3T3-E1 cells at >500 nM after 10 to 15 days by alizarin red dye based assay; type: functional, cell-based
# [11] = system: Bone marrow cell; assay: Induction of mineralization in C57BL mouse bone marrow cells at >50 nM supplemented with fresh medium containing compound every 3 days for 10 to 15 days by alizarin red dye based assay; type: functional
# [12] = system: Bone marrow cell; assay: Induction of mineralization in C57BL mouse bone marrow cells co-cultured with human PC3 cells at >100 nM supplemented with fresh medium containing compound every 3 days for 10 to 15 days by alizarin red dye based assay; type: functional
# [13] = system: J774.A1; assay: Antiproliferative activity against mouse J774A.1 cells assessed as change in cell proliferation at 100 uM after 72 hrs by crystal violet staining based assay relative to control; type: functional
# [14] = system: RAW264.7; assay: Antiproliferative activity against mouse RAW264.7 cells assessed as change in cell proliferation at 100 uM after 72 hrs by crystal violet staining based assay relative to control; type: functional
# [15] = system: MG-63; assay: Antiproliferative activity against human MG63 cells assessed as change in cell proliferation at 100 uM after 72 hrs by crystal violet staining based assay relative to control; type: functional
# [16] = system: PC-3; assay: Antiproliferative activity against human PC3 cells assessed as change in cell proliferation at 100 uM after 72 hrs by crystal violet staining based assay relative to control; type: functional
# [17] = system: Hydroxyapatite; assay: Binding affinity to hydroxyapatite at 100 uM using sodium salt form of compound after 5 mins by ESI/MS analysis
# [18] = system: MC3T3-E1; assay: Induction of mineralization in mouse MC3T3-E1 cells at 30 to 50 nM after 10 to 15 days by alizarin red dye based assay; type: functional, cell-based
# [19] = system: Bone marrow cell; assay: Induction of cell proliferation in C57BL mouse bone marrow cells at 100 nM after 72 hrs by crystal violet staining based assay; conditions: 0.1 µM
# [20] = system: Bone marrow cell; assay: Cytotoxicity against C57BL mouse bone marrow cells assessed as decrease in cell proliferation at 100 to 500 uM after 72 hrs by crystal violet staining based assay; design: scale not given: the % may be the effect or the level left
# [21] = system: MG-63; assay: Antiproliferative activity against human MG63 cells assessed as reduction in cell viability at 2.14 uM after 72 hrs by WST8 assay; type: functional, cell-based
# [22] = system: PC-3; assay: Antiproliferative activity against human PC3 cells assessed as reduction in cell viability at 2.14 uM after 72 hrs by WST8 assay; type: functional, cell-based
# [23] = system: J774.A1; assay: Antiproliferative activity against mouse J774A.1 cells assessed as reduction in cell proliferation at 500 uM after 72 hrs by crystal violet staining based assay; type: functional
# [24] = system: RAW264.7; assay: Antiproliferative activity against mouse RAW264.7 cells assessed as reduction in cell proliferation at 500 uM after 72 hrs by crystal violet staining based assay; type: functional
# [25] = system: MG-63; assay: Antiproliferative activity against human MG63 cells assessed as reduction in cell proliferation at 500 uM after 72 hrs by crystal violet staining based assay; type: functional
# [26] = system: PC-3; assay: Antiproliferative activity against human PC3 cells assessed as reduction in cell proliferation at 500 uM after 72 hrs by crystal violet staining based assay; type: functional
# [27] = target: T1, Farnesyl pyrophosphate synthase (Homo sapiens) (UniProt P14324); assay: Inhibition of recombinant human C-terminal His6-tagged FPPS expressed in Escherichia coli BL21 at 100 uM using DMAPP and IPP as substrates pretreated for 15 mins followed by substrates addition and measured after 1 hr by colorimetric method relative to control
# T1 sequence (whole entry): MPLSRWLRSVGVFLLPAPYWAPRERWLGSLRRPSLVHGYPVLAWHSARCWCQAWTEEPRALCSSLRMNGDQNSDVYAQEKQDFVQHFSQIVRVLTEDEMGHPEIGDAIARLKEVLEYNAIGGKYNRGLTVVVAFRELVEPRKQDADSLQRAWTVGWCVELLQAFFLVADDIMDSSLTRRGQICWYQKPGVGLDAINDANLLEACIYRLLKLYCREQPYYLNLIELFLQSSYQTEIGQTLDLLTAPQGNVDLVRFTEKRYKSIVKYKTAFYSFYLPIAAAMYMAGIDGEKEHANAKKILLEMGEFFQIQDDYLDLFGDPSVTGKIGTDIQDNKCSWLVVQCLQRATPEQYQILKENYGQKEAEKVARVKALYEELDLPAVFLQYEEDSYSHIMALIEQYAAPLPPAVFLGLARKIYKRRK
# [28] = target: T1, Farnesyl pyrophosphate synthase (Homo sapiens); assay: Inhibition of recombinant human C-terminal His6-tagged FPPS expressed in Escherichia coli BL21 at 1 to 10 uM using DMAPP and IPP as substrates pretreated for 15 mins followed by substrates addition and measured after 1 hr by colorimetric method relative to control
# [29] = target: T2, Geranylgeranyl pyrophosphate synthase (Homo sapiens) (UniProt O95749); assay: Inhibition of recombinant human C-terminal His6-tagged GGPPS expressed in Escherichia coli BL21 at 1 to 10 uM using IPP and FPP as substrates pretreated for 15 mins followed by substrates addition and measured after 1 hr by colorimetric method relative to control
# T2 sequence (whole entry): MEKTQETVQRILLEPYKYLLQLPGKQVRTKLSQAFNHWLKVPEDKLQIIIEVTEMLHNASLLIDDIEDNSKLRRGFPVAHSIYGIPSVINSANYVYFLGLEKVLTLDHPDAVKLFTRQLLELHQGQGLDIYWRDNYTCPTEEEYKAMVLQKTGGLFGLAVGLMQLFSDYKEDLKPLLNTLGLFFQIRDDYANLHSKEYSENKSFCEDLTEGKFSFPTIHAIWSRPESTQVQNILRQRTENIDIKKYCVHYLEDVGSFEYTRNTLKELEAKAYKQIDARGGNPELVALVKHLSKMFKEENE
# [30] = target: T3, Farnesyl pyrophosphate synthase (Homo sapiens, UniProt P14324); assay: Inhibition of recombinant human C-terminal His6-tagged FPPS expressed in Escherichia coli BL21 using DMAPP and IPP as substrates pretreated for 15 mins followed by substrates addition and measured after 1 hr by colorimetric method
# T3 sequence (P14324 whole entry): T1 sequence (whole entry)
# [31] = system: Bone marrow cell; assay: Induction of cell proliferation in C57BL mouse bone marrow cells at 30 nM after 72 hrs by crystal violet staining based assay; conditions: 0.03 µM
SMILES,Activity [1],Activity [2],Activity [3],Activity [4],Activity [5],inhibition [6],Activity [7],Activity [8],Activity [9],Activity [10],Activity [11],Activity [12],Activity [13] [%],Activity [14] [%],Activity [15] [%],Activity [16] [%],Activity [17] [%],Activity [18],also measured
NCCCC(O)(P(=O)(O)O)P(=O)(O)O [ALENDRONIC ACID],Active,Active,Active,Active,Active,Active,Active,inactive,Non-Toxic,inactive,inactive,inactive,,,,,,,
O.O=P(O)(O)C(O)(Cn1ccnc1)P(=O)(O)O [ZOLEDRONIC ACID],Active,Active,Active,Active,Active,Active,Active,Active,,inactive,inactive,inactive,-60.657,-54.523,-27.901,-28.408,> 95,Active,Activity [19]: Toxic; Activity [20]: 20%
CN[C@@H]1C[C@H]2O[C@@](C)([C@@H]1OC)n1c3ccccc3c3c4c(c5c6ccccc6n2c5c31)C(=O)NC4,,,,,,,,,,,,,,,,,,,Activity [21]: Active; Activity [22]: Active
O=P(O)(O)C(O)(CNc1ncccn1)P(=O)(O)O,Active,Active,Active,Active,Active,Active,Active,Active,,inactive,inactive,inactive,-31.512,-47.365,-16.295,-29.682,90,Active,Activity [23]: inactive; Activity [24]: inactive; Activity [25]: inactive; Activity [26]: inactive; inhibition [27]: 96%; inhibition [28]: 68 to 79%; inhibition [29]: 68 to 79%; IC50 [30]: 310 nM; Activity [31]: Toxic
O=P(O)(O)C(O)(Cc1cccnc1)P(=O)(O)O [RISEDRONIC ACID],Active,Active,Active,Active,Active,Active,Active,inactive,Non-Toxic,inactive,inactive,inactive,,,,,87,,
